{"source": "ChEMBL document CHEMBL4033665", "about": "“Synthesis and applications of benzohydroxamic acid-based histone deacetylase inhibitors” (Eur J Med Chem, 2017)", "key": {"Histone deacetylase 2 [1]": {"biological_target": "T1, Histone deacetylase 2 (Homo sapiens, UniProt Q92769)", "T1 sequence (Q92769 whole entry)": "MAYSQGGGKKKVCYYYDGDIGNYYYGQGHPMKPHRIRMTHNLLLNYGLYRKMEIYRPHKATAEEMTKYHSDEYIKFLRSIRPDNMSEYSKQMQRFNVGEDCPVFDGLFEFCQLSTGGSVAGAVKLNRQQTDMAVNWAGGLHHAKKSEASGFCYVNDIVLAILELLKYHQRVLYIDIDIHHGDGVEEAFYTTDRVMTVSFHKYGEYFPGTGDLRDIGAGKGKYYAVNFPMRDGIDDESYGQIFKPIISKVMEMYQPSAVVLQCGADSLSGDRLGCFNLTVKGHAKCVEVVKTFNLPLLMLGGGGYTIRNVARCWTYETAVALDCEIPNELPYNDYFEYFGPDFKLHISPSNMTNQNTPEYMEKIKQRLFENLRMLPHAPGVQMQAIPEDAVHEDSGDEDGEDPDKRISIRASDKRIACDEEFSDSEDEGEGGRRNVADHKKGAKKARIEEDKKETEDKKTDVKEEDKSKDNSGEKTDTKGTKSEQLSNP", "test": "Inhibition of human HDAC2 after 15 mins by trypsin-coupled fluorescence assay"}, "[2]": {"test": "Inhibition of maize HD1A", "parameters": "species or system Zea mays"}, "Histone deacetylase HD1B": {"biological_target": "Histone deacetylase HD1B (Zea mays, UniProt Q9ZTP8)", "sequence (Q9ZTP8 whole entry)": "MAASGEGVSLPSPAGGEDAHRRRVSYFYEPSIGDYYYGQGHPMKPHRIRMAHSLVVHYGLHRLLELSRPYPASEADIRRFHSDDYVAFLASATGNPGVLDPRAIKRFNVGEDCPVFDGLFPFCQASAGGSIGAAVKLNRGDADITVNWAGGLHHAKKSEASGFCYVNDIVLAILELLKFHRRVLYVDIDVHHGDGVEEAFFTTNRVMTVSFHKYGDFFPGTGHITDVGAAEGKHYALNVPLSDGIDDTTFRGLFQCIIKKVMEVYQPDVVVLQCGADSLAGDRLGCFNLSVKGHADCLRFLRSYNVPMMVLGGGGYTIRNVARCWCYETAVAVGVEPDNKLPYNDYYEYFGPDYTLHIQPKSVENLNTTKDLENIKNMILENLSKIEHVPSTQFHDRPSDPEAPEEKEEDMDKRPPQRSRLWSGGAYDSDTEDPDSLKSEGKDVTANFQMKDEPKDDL", "test": "Inhibition of maize HD1B"}, "[3]": {"test": "Inhibition of maize HD2", "parameters": "species or system Zea mays"}, "[4]": {"biological_target": "T2, Protein deacetylase HDAC6 (Homo sapiens, UniProt Q9UBN7)", "T2 sequence (Q9UBN7 whole entry)": "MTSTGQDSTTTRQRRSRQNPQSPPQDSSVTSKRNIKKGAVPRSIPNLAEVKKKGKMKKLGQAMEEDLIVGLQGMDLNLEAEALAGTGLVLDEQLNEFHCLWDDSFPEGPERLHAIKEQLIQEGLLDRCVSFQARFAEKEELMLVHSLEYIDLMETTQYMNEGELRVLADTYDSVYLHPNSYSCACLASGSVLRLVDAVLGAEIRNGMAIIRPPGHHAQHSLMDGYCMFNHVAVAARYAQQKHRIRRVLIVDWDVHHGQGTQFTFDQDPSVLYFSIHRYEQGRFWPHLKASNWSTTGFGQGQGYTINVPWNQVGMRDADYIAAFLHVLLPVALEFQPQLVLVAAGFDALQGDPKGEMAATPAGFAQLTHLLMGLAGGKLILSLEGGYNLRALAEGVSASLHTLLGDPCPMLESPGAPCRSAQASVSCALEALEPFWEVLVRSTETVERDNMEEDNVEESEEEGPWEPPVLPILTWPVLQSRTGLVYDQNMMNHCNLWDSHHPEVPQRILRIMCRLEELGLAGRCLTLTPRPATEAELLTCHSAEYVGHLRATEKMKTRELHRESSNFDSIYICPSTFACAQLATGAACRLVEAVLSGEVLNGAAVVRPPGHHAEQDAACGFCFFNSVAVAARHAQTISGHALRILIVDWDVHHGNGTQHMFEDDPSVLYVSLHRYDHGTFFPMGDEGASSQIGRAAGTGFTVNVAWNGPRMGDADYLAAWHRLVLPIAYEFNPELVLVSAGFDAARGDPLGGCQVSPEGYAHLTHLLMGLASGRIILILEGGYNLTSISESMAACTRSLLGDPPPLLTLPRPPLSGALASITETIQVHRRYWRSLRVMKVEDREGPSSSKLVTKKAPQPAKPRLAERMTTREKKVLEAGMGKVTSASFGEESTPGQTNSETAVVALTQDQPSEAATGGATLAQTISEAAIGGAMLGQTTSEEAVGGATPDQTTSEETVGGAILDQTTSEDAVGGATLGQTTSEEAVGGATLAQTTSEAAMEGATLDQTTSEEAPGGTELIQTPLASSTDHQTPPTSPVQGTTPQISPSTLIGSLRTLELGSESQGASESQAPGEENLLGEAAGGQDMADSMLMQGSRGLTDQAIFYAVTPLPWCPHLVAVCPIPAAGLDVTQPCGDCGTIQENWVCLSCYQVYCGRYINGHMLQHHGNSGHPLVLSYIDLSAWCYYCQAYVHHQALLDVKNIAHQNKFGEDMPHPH", "test": "Inhibition of recombinant human HDAC6 using Boc-Lys(acetyl)-AMC as substrate after 1 hr by fluorescence assay"}, "Histone deacetylase 4 [5]": {"biological_target": "T3, Histone deacetylase 4 (Homo sapiens, UniProt P56524)", "T3 sequence (P56524 whole entry)": "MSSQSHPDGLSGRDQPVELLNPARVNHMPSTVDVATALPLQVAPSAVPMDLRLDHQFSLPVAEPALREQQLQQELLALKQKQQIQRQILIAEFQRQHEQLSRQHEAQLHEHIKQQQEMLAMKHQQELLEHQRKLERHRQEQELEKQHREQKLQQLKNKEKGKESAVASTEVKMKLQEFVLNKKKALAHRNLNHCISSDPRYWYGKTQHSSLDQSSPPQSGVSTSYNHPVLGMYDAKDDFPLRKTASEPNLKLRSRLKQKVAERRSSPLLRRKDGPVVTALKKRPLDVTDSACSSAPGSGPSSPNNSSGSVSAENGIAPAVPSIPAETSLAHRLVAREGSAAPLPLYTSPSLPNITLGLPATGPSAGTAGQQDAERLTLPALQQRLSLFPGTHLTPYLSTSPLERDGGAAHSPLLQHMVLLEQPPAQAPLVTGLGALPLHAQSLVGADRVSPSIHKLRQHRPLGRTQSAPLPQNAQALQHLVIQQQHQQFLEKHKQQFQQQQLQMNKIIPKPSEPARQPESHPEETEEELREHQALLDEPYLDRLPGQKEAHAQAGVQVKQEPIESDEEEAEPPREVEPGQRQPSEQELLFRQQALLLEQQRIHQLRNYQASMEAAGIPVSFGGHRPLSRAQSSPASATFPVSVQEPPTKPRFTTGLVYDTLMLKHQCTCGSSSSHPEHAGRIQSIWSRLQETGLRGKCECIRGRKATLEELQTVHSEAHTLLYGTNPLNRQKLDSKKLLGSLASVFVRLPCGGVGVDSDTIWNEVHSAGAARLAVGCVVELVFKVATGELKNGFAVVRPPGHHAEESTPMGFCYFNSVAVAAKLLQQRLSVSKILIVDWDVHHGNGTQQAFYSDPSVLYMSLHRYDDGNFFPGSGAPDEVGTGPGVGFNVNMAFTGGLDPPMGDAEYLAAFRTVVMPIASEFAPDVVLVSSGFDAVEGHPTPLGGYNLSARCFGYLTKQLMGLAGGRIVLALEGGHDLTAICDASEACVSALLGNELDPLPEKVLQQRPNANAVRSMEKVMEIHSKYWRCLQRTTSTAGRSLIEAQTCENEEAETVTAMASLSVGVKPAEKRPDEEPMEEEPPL", "test": "Inhibition of HDAC4 (unknown origin)"}, "Histone deacetylase 5": {"biological_target": "Histone deacetylase 5 (Homo sapiens, UniProt Q9UQL6)", "sequence (Q9UQL6 whole entry)": "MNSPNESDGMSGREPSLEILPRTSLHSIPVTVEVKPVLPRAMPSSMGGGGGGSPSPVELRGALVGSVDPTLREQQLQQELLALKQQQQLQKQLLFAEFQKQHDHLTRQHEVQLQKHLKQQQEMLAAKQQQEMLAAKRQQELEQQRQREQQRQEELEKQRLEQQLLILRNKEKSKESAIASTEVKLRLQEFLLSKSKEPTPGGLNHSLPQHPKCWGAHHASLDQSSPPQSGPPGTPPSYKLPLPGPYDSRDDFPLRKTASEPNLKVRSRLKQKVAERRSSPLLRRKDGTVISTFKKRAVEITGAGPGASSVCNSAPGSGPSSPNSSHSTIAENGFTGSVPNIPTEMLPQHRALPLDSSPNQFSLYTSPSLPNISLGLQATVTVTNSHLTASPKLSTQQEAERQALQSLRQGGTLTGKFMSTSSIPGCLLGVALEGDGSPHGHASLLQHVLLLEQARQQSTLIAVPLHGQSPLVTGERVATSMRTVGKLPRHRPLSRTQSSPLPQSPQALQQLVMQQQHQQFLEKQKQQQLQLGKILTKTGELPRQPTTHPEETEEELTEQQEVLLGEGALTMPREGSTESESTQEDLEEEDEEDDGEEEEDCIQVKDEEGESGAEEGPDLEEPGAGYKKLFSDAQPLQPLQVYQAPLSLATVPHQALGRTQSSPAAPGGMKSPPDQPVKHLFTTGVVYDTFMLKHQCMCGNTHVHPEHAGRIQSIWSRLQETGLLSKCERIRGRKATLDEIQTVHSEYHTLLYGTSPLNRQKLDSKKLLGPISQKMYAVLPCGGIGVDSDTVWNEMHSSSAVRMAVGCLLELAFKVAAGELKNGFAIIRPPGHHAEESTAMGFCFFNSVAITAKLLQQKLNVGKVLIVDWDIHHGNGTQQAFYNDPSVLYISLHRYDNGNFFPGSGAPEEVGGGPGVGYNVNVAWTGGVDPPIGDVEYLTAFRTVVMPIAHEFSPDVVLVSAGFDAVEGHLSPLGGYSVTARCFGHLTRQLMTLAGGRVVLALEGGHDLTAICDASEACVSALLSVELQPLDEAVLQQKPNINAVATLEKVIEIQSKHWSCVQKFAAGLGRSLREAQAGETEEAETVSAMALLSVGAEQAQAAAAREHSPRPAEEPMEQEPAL", "test": "Inhibition of HDAC5 (unknown origin)"}, "Histone deacetylase 2 [6]": {"biological_target": "T1, Histone deacetylase 2", "test": "Inhibition of HDAC2 (unknown origin)"}, "Histone deacetylase 8 [7]": {"biological_target": "T4, Histone deacetylase 8 (Homo sapiens, UniProt Q9BY41)", "T4 sequence (Q9BY41 whole entry)": "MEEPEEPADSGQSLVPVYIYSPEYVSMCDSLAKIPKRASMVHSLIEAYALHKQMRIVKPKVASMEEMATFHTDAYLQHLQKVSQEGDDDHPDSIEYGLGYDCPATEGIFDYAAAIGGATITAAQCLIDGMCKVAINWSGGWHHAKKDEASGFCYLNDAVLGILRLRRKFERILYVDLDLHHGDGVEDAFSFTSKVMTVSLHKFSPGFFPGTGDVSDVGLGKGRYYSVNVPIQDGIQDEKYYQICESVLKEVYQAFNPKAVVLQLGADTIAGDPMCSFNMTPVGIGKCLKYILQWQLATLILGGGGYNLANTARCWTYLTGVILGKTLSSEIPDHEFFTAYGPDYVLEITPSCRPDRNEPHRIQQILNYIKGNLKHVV", "test": "Inhibition of HDAC8 (unknown origin)"}, "Histone deacetylase 3 [8]": {"biological_target": "T5, Histone deacetylase 3 (Homo sapiens, UniProt O15379)", "T5 sequence (O15379 whole entry)": "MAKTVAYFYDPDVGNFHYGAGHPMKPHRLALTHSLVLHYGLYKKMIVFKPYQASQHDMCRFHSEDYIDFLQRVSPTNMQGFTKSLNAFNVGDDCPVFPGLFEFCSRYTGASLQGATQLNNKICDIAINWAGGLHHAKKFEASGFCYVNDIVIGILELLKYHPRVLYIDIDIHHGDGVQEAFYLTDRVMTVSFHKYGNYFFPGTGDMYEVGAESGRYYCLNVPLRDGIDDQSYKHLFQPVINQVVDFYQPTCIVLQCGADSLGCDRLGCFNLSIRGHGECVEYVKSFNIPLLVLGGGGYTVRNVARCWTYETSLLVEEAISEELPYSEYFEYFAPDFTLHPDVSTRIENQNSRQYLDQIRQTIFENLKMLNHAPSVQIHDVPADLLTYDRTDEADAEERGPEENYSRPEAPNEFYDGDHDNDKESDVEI", "test": "Inhibition of HDAC3 (unknown origin)"}, "[9]": {"biological_target": "T2, Protein deacetylase HDAC6", "test": "Inhibition of HDAC6 (unknown origin)"}, "Histone deacetylase 11": {"biological_target": "T6, Histone deacetylase 11 (Homo sapiens, UniProt Q96DB2)", "T6 sequence (Q96DB2 whole entry)": "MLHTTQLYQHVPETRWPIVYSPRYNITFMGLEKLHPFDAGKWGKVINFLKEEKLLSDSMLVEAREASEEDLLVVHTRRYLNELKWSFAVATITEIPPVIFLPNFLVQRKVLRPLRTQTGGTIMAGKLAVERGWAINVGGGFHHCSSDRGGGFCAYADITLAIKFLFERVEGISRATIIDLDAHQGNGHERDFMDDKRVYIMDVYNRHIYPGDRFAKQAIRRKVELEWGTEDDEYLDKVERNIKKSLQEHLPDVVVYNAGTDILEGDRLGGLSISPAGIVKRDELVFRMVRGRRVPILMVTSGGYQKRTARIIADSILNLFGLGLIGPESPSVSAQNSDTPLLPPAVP", "test": "Inhibition of HDAC11 (unknown origin)"}, "[10]": {"biological_target": "T7, Polyamine deacetylase HDAC10 (Homo sapiens, UniProt Q969S8)", "T7 sequence (Q969S8 whole entry)": "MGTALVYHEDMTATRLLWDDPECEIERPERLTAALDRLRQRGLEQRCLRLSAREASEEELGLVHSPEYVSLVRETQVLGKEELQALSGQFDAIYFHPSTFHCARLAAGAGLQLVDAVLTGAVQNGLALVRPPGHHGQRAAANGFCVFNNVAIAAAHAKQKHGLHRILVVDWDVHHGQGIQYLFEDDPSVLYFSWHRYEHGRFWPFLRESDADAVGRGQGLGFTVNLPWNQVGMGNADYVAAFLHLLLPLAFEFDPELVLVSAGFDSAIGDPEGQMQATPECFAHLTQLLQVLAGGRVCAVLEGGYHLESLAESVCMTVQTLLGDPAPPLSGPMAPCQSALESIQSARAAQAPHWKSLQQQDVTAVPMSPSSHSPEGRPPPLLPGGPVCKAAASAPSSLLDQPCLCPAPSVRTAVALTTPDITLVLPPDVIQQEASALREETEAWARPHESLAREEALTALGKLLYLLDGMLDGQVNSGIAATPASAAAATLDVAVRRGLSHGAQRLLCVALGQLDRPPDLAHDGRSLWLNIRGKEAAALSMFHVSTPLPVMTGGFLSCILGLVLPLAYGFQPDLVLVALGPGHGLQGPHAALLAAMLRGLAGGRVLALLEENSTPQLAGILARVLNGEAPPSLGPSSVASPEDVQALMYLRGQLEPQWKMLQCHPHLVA", "test": "Inhibition of HDAC10 (unknown origin)"}, "[11]": {"biological_target": "T8, Protein deacetylase HDAC6 (Homo sapiens) (UniProt Q9UBN7)", "T8 sequence (whole entry)": "T2 sequence (Q9UBN7 whole entry)", "test": "Inhibition of human HDAC6 at 100 uM after 90 mins by fluorescence assay"}, "Histone deacetylase 1 [12]": {"biological_target": "T9, Histone deacetylase 1 (Homo sapiens, UniProt Q13547)", "T9 sequence (Q13547 whole entry)": "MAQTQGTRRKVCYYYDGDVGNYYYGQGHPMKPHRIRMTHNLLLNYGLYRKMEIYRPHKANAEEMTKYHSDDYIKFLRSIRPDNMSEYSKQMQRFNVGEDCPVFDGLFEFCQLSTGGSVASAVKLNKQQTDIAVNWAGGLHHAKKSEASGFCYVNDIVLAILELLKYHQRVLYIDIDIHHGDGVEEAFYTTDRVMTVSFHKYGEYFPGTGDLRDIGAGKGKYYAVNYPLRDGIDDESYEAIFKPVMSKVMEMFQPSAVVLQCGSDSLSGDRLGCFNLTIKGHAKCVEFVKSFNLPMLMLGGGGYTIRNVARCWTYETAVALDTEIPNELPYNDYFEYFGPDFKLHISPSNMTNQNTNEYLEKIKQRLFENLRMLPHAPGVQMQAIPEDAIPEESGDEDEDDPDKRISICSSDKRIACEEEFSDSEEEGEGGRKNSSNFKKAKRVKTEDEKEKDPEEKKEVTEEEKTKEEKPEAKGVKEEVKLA", "test": "Inhibition of human HDAC1 using MAL as substrate at 100 uM after 90 mins by fluorescence assay"}, "Histone deacetylase 8 [13]": {"biological_target": "T4, Histone deacetylase 8", "test": "Inhibition of human HDAC8 using ZMTFAL as substrate after 90 mins by fluorescence assay"}, "Histone deacetylase 4 [14]": {"biological_target": "T3, Histone deacetylase 4", "test": "Inhibition of HDAC4 (unknown origin) by fluorescence assay"}, "Histone deacetylase 3 [15]": {"biological_target": "T5, Histone deacetylase 3", "test": "Inhibition of HDAC3 (unknown origin) by fluorescence assay"}, "Histone deacetylase 2 [16]": {"biological_target": "T1, Histone deacetylase 2", "test": "Inhibition of HDAC2 (unknown origin) by fluorescence assay"}, "Histone deacetylase 8 [17]": {"biological_target": "T4, Histone deacetylase 8", "test": "Inhibition of HDAC8 (unknown origin) by fluorescence assay"}, "[18]": {"biological_target": "T2, Protein deacetylase HDAC6", "test": "Inhibition of HDAC6 (unknown origin) by fluorescence assay"}, "[19]": {"test": "Inhibition of HDAC activity in human HeLa nuclear extract"}, "Histone deacetylase 1 [20]": {"biological_target": "T9, Histone deacetylase 1", "test": "Inhibition of HDAC1 (unknown origin) by fluorescence assay"}, "Histone deacetylase 1 [21]": {"biological_target": "T9, Histone deacetylase 1", "test": "Inhibition of C-terminal His-tag and C-terminal FLAG-tagged full length human HDAC1 expressed in baculovirus expression system using AMC-labeled RHKKAc as substrate by fluorescence method"}, "[22]": {"biological_target": "T2, Protein deacetylase HDAC6", "test": "Inhibition of recombinant N-terminal GST-tagged full length human HDAC6 expressed in baculovirus expression system in Sf9 insect cells using AMC-labeled RHKKAc as substrate by fluorescence method"}}, "data": [{"smiles": "O=C(NO)c1ccc(CC(=O)N(CCO)c2ccccc2)cc1", "values": [{"measurement": "IC50", "setting": "Histone deacetylase 2 [1]", "result": 4.4, "unit": "µM"}]}, {"smiles": "CCN(CC)Cc1ccc2cc(COC(=O)Nc3ccc(C(=O)NO)cc3)ccc2c1", "note": "[GIVINOSTAT]", "values": [{"measurement": "IC50", "setting": "[2]", "result": "7.5 to 16", "unit": "nM"}, {"measurement": "IC50", "setting": "Histone deacetylase HD1B", "result": "7.5 to 16", "unit": "nM"}, {"measurement": "IC50", "setting": "[3]", "result": "7.5 to 16", "unit": "nM"}]}, {"smiles": "O=C(Cc1ccc(C(=O)NO)cc1)NC1=CC(=O)c2ccccc2C1=O", "values": [{"measurement": "IC50", "setting": "[4]", "result": 6, "unit": "nM"}]}, {"smiles": "Cc1nc2ccccc2n1Cc1ccc(C(=O)NO)cc1F", "values": [{"measurement": "IC50", "setting": "Histone deacetylase 4 [5]", "result": 500, "unit": "nM"}, {"measurement": "IC50", "setting": "Histone deacetylase 5", "result": 200, "unit": "nM"}, {"measurement": "IC50", "setting": "Histone deacetylase 2 [6]", "result": 20.3, "unit": "µM"}, {"measurement": "IC50", "setting": "Histone deacetylase 8 [7]", "result": 200, "unit": "nM"}, {"measurement": "IC50", "setting": "Histone deacetylase 3 [8]", "result": 12.5, "unit": "µM"}, {"measurement": "IC50", "setting": "[9]", "result": 0.8, "unit": "nM"}, {"measurement": "IC50", "setting": "Histone deacetylase 11", "result": 12.9, "unit": "µM"}, {"measurement": "IC50", "setting": "[10]", "result": 20.4, "unit": "µM"}]}, {"smiles": "O=C1Nc2ccccc2/C1=N/NC(=S)Nc1ccc(C(=O)NO)cc1", "values": [{"measurement": "inhibition", "setting": "[11]", "result": 41, "unit": "%"}, {"measurement": "inhibition", "setting": "Histone deacetylase 1 [12]", "result": "< 10", "unit": "%"}, {"measurement": "IC50", "setting": "Histone deacetylase 8 [13]", "result": 15.7, "unit": "µM"}]}, {"smiles": "O=C(NO)c1cccc(-c2csc(CSc3ccccc3)n2)c1", "values": [{"measurement": "IC50", "setting": "Histone deacetylase 4 [14]", "result": "> 100", "unit": "µM"}, {"measurement": "IC50", "setting": "Histone deacetylase 3 [15]", "result": 12, "unit": "µM"}, {"measurement": "IC50", "setting": "Histone deacetylase 2 [16]", "result": "> 100", "unit": "µM"}, {"measurement": "IC50", "setting": "Histone deacetylase 8 [17]", "result": 150, "unit": "nM"}, {"measurement": "IC50", "setting": "[18]", "result": 14, "unit": "µM"}, {"measurement": "IC50", "setting": "[19]", "result": "> 100", "unit": "µM"}, {"measurement": "IC50", "setting": "Histone deacetylase 1 [20]", "result": "> 100", "unit": "µM"}]}, {"smiles": "Cc1noc(C)c1-c1ccnc(N(Cc2ccc(C(=O)NO)cc2)c2cnccn2)c1", "values": [{"measurement": "IC50", "setting": "Histone deacetylase 1 [21]", "result": "≥ 10", "unit": "µM"}, {"measurement": "IC50", "setting": "[22]", "result": "≤ 500", "unit": "nM"}]}]}
